Changes are numbered by the printed parent chain.
Experiments:
VCaP cell line = experiment: Cell growth inhibition in the VCaP cell line; format: cell-based, human
AR protein [1] = target: T1, AR protein (Homo sapiens, UniProt P10275); experiment: AR degradation in VCaP cell line; format: cell-based
T1 sequence (P10275 1-920): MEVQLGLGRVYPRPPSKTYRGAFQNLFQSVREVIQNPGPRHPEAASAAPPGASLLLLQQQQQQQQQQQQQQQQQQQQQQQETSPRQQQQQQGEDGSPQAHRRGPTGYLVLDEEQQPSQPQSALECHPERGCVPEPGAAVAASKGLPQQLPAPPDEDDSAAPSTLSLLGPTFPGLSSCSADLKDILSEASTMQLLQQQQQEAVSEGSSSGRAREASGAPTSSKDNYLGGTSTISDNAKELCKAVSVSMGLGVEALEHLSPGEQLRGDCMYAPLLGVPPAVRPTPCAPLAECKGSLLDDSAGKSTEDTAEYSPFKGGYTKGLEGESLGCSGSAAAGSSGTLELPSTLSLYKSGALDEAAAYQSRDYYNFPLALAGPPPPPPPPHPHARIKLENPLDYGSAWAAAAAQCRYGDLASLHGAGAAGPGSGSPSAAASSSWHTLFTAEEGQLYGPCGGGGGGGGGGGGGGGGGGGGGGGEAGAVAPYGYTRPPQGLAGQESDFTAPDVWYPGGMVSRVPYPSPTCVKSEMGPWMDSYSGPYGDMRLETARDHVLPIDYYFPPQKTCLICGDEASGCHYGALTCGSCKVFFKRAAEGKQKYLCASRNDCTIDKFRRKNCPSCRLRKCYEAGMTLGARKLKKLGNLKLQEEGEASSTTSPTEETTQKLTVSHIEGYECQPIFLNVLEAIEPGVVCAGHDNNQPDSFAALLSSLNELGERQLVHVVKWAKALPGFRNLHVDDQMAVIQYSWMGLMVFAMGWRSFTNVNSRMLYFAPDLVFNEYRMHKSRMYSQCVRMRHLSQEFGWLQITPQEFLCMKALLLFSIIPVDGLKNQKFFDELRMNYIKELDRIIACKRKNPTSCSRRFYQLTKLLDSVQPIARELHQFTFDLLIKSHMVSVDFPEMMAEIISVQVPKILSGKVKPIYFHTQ

Pharmacokinetics in mice = format: in vivo; settings: male, mouse, in vivo
[2] = Tissue distribution studies of ARD-2585 in mice bearing VCaP tumors; format: in vivo; settings: male, SCID, mouse, po, 20 mg/kg
[3] = test system: AR protein (22Rvl cell line with F876L mutation); experiment: AR degradation in 22Rv1 cell line; format: cell-based, human; settings: 22Rv1, 24 h
AR T878A mutant protein = target: T2, AR T878A mutant protein (Homo sapiens, UniProt P10275, T878A)
T2 sequence (P10275 1-920 T878A): T1 sequence (P10275 1-920) with T878A

AR protein [4] = target: T1, AR protein; settings: single oral administration 20 mg/kg, 6 and 24 h time-points, Western blotting
[5] = target: T3, AR double mutations (L702H and T878A) (Homo sapiens, UniProt P10275, L702H/T878A); settings: MDA-PCa-2b, 24 h, Figure 7
T3 sequence (P10275 1-920 L702H/T878A): T1 sequence (P10275 1-920) with L702H, T878A

SMILES	times less potent than compounds 35 and 36 (cell growth inhibition) (VCaP cell line)	Dmax, AR degradation in VCaP cell line (AR protein [1]; VCaP cell line, 24 h treatment, Western blotting, listed as ARD-2585)	reduction of AR protein (mechanism study) (AR protein [1]; VCaP cells, 100 nM, 3 h treatment)	reduction of AR protein level (degradation kinetics) (AR protein [1]; VCaP, 1 h)	Vd (Pharmacokinetics in mice; iv, 2 mg/kg)	clearance (Pharmacokinetics in mice; iv, 2 mg/kg)	half-life (Pharmacokinetics in mice; iv, 2 mg/kg)	AUC(0-t) (Pharmacokinetics in mice; po, 3 mg/kg)	concentration at 6 h ([2]; plasma)	concentration at 24 h ([2]; plasma)	concentration at 24 h ([2]; prostate)	Dmax, AR degradation in 22Rv1 cell line [3]	Dmax, AR degradation in LNCaP cell line (AR T878A mutant protein; LNCaP cell line (AR T878A), Western blotting, listed as ARD-2585)	reduction of AR protein (mechanism study) (AR T878A mutant protein; LNCaP cells, 100 nM, 3 h treatment)	reduction of AR protein level (degradation kinetics) (AR T878A mutant protein; LNCaP, 1 h)	reduction of AR protein level in VCaP tumor tissue (AR protein [4])	concentration as low as which AR protein level is reduced by >80% [5]
CCCN(c1ccc(C#N)c(Cl)c1)[C@H]1CC[C@H](NC(=O)c2ccc(N3CCC(N4CCN(c5ccc6c(c5)C(=O)N(C5CCC(=O)NC5=O)C6=O)CC4)CC3)cc2)CC1 (stereo partly drawn) [Compound 37, N-(1R,4R)-4-(((3-Chloro-4-cyanophenyl)(propyl)amino)-cyclohexyl)-4-(4-(4-(2-(2,6-dioxopiperidin-3-yl)-1,3-dioxoisoindolin-5-yl)piperazin-1-yl)piperidin-1-yl)benzamide]	> 40																
N#Cc1ccc(N[C@H]2CC[C@H](NC(=O)c3ccc(N4CCC(N5CCN(c6ccc7c(c6)C(=O)N(C6CCC(=O)NC6=O)C7=O)CC5)CC4)cc3)CC2)cc1Cl (stereo partly drawn) [Compound 34, N-(1R,4R)-4-(((3-Chloro-4-cyanophenyl)amino)cyclohexyl)-4-(4-(4-(2-(2,6-dioxopiperidin-3-yl)-1,3-dioxoisoindolin-5-yl)piperazin-1-yl)piperidin-1-yl)benzamide]	~10																
CN(c1ccc(C#N)c(Cl)c1)[C@H]1CC[C@H](NC(=O)c2ccc(N3CCN(C4CN(c5ccc6c(c5)C(=O)N(C5CCC(=O)NC5=O)C6=O)C4)CC3)cc2)CC1 (stereo partly drawn) [Compound 43, N-(1R,4R)-4-(((3-Chloro-4-cyanophenyl)(methyl)amino)-cyclohexyl)-4-(4-(1-(2-(2,6-dioxopiperidin-3-yl)-1,3-dioxoisoindolin-5-yl)azetidin-3-yl)piperazin-1-yl)benzamide]		> 98%	effectively reduces	effectively reduce	1.8 to 2.1 L/kg	3.33 to 5 mL/min/kg	5.5 to 7.5 h	8640 ng·h/mL	134 ± 98 ng/mL	214 ± 78 ng/mL	109 ± 23 ng/g	> 95%	> 98%	effectively reduces	effectively reduce	effective	1 nM

Reference: publication PMC8855934 (Journal of medicinal chemistry, 2021)
